pKi: −log10 of the molar value. Structures can show the parent of a compound that is named as a salt.
How the values were obtained:
5-HT7 = 5-HT7 (Homo sapiens, UniProt P34969); assay: 5-HT7 binding
From the text: (§1) Further, the compounds of the invention may be tested in binding assays and functional activity assays by well known methods for other physiologically important receptors such as, but not limited to, the hERG channel, other serotonin receptors (specifically 5-HT1B and 5-HT1D receptors, lack of agonist activity at 5-HT2B receptors, 5-HT2C, 5-HT5, 5-HT6, and 5-HT7 receptors), dopaminergic receptors (specifically D1, D2, and D3), GABAA receptors, adrenergic receptors and monoamine transporters.

Adrenergic alpha2A = Adrenergic alpha2A (Homo sapiens, UniProt P08913); assay: Adrenergic alpha2A binding
From the text: as §1

Adrenergic alpha2B = Adrenergic alpha2B (Homo sapiens, UniProt P18089); assay: Adrenergic alpha2B binding
From the text: as §1

Dopamine Transporter = Dopamine Transporter (Homo sapiens, UniProt Q01959); assay: Dopamine transporter binding
From the text: as §1

5-HT2A Receptor = target: T1, 5-HT2A Receptor (Rattus norvegicus, UniProt P14842); assay: 5-HT2A receptor occupancy in vivo (MDL 100907 tracer); conditions: male Sprague-Dawley rats, oral gavage, 1 hr. before tracer, absolute ED50
T1 construct: samples of the frontal cortex and cerebellum are removed; from tissue; host or cells: rat brain (frontal cortex versus cerebellum), in vivo
Procedure: Briefly, male Sprague-Dawley rats (Harlan Sprague-Dawley, Indianapolis, Ind.) weighing approximately 230-280 grams are given ad lib access to food and water until the beginning of the 3-hr. experimental protocol. 1 mg/kg ketanserin (non-selective 5-HT2A antagonist) is used as a positive control to establish assay validity. Test compounds or control are administered by oral gavage in a vehicle comprised of 20% hydroxypropyl beta-cyclodextrin. MDL 100907 ((R)-(+)-α-(2,3-Dimethoxyphenyl)-1-[2-(4-fluorophenyl)ethyl]-4-piperidinemethanol), a selective 5-HT2A antagonist, is used as a tracer. […] It is at the time of tracer administration that RO is considered to be measured. […] The level of MDL 100907 tracer is measured in each cortical and cerebellar sample. RO is calculated using the well-established ratio method which employs a region of high receptor density representative of total binding (frontal cortex) normalized by an area without or with very low levels of receptor (cerebellum). […]
Cortex and cerebellar samples are weighed and placed in conical centrifuge tubes on ice. […] Standards are prepared by adding known quantities of analyte to brain tissue samples from non-treated rats and processing as described above. […]

Plasma clearance = assay type: in vivo; conditions: dog, 1 mg/kg, male Beagle dogs, intravenous, 1 mL/kg of 1.0 mg/mL (free base equivalents)
Procedure: Male Beagle dogs (body weight range 10-12 kg) are obtained from Marshall Bioresources, USA. Test compound is administered intravenously in solution (1 mL/kg) in 20% Captisol® in 22.5 mM phosphate buffer, pH 2, at a final drug concentration of 1.0 mg/mL (free base equivalents). Blood samples are obtained from the jugular vein over 24 hr. Samples of plasma are obtained by centrifugation and stored frozen (−20° C.) prior to analysis.
Frozen plasma samples are thawed to room temperature for bioanalysis of concentrations of test compound. A related internal standard compound in acetonitrile/methanol (1:1, v/v) is added to all samples of plasma (1:1, v/v). The samples are centrifuged to remove precipitated protein prior to analysis. The supernatants are analysed by injection and rapid gradient elution on a Javelin Betasil C18 column (20×2.1 mm cartridge, Mobile phase A: Water/1 M NH4HCO3, 2000:10 v/v, Mobile Phase B: MeOH/1 M NH4HCO3, 2000:10 v/v). The eluted analytes are detected by LC-MS-MS analysis using a Sciex API 4000 triple quadrupole mass spectrometer. Concentrations of compound are determined from standards prepared and analysed under identical conditions. Clearance is calculated using non-compartmental analysis in Watson 7.4, Thermo Fisher Scientific, Inc.

Sequence of Adrenergic alpha2A (P08913 whole entry): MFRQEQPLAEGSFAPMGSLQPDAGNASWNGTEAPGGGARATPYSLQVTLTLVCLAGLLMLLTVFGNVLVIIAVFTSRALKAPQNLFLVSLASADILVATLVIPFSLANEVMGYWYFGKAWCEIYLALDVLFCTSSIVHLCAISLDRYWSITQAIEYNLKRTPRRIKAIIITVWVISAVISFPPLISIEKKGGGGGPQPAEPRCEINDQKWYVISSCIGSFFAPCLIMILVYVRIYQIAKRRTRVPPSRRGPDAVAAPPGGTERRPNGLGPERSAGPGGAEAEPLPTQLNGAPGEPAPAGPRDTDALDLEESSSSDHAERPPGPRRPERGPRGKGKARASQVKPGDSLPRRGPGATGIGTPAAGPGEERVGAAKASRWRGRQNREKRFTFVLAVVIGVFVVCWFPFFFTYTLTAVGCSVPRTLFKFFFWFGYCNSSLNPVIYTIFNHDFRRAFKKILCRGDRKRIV
T1 sequence (P14842 whole entry): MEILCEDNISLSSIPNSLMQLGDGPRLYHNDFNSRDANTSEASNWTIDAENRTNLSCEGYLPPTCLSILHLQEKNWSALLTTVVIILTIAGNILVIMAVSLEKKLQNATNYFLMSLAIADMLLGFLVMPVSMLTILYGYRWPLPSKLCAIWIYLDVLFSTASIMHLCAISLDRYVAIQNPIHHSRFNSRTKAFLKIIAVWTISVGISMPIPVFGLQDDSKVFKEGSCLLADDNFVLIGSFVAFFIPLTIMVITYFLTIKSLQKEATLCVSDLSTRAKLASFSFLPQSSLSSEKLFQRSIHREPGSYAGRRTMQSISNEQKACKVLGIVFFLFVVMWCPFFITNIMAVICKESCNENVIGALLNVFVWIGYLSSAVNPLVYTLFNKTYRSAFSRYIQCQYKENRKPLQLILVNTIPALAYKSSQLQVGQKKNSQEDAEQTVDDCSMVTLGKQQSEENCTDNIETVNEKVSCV
Sequence of Dopamine Transporter (Q01959 whole entry): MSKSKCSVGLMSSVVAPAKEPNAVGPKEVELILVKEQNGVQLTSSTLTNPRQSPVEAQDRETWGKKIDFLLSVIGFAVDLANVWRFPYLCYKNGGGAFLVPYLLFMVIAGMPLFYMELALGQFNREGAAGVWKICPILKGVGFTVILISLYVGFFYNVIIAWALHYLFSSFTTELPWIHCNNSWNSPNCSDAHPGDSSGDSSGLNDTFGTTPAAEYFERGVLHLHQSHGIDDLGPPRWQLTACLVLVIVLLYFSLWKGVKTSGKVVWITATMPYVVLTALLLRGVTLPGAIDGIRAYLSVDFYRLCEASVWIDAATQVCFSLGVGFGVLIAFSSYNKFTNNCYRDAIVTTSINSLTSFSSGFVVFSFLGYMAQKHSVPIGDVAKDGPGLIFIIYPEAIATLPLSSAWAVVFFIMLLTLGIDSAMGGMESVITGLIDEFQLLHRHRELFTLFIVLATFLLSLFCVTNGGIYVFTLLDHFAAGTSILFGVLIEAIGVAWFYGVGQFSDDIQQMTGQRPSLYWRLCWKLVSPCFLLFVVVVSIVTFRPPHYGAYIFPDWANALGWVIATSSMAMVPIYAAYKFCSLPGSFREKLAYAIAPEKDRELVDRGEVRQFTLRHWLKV
Sequence of Adrenergic alpha2B (P18089 whole entry): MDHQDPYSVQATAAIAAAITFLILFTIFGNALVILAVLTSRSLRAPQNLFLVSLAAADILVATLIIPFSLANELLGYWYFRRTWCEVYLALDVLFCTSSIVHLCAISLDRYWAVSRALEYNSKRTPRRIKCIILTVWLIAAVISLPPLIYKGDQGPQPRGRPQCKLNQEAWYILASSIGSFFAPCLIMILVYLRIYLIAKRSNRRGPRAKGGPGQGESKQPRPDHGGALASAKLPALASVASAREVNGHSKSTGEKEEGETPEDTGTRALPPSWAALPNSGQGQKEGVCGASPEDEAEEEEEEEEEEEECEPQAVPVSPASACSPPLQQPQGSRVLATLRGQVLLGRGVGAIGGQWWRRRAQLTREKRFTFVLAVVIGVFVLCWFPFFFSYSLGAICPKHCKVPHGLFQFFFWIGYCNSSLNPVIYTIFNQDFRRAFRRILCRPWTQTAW
Sequence of 5-HT7 (P34969 whole entry, species assumed): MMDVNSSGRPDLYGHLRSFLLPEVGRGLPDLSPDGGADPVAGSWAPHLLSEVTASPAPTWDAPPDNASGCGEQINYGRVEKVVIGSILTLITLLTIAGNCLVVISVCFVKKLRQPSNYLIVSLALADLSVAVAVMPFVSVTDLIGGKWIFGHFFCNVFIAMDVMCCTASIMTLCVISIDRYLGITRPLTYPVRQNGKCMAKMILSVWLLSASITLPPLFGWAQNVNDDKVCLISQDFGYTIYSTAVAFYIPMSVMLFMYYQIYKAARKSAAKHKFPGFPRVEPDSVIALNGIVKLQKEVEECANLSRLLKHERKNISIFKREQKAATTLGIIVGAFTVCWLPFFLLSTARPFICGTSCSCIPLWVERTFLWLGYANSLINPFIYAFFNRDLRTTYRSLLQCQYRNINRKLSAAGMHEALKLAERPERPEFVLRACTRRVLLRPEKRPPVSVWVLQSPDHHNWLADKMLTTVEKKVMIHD

Work on Cc1ccc2c(c1)Oc1sc(C3CC3)cc1C(N1CCN(CC(C)(C)C(=O)O)CC1)=N2 [Example 2, 3-[4-(2-Cyclopropyl-8-methyl-thieno[2,3-b][1,5]benzoxazepin-4-yl)piperazin-1-yl]-2,2-dimethyl-propanoic acid dihydrochloride] yielded a pKi (5-HT7) of under 5.69, a pKi (Adrenergic alpha2A) of 5.23 and a pKi (Adrenergic alpha2B) of 5.97. For the same compound, the pKi (Dopamine Transporter) was under 6.06, the ED50 (5-HT2A Receptor) was 0.41 mg/kg and the clearance (Plasma clearance) was 6.06 mL/min/kg.

— patent publication US9562057B2, “(Thieno[2,3-b][1,5]benzoxazepin-4-yl)piperazin-1-yl compounds as dual activity H1 inverse agonists/5-HT2A antagonists” (Eli Lilly and Company, priority 2013, dated 2017)
